The source of these data is US20130324439A1, “Elastic Modulus-modified MicroEnvironment microArrays (eMEArrays) and Uses Thereof” (The Regents of the University of California, priority 2012, published 2013).

Entries after “also recorded” stand apart in the source; their conditions may differ.

The test system of data set [1] is HER2. Put plainly: Phospho-specific intracellular flow cytometry, ratio of pHER2 to total HER2 in HCC1569. It counts as cell-based. The settings on record: for Modulus-dependent regulation of pHER2/HER2 ratio in treated cells: HCC1569, inhibitor for 24 hours on PA gels of differing compliance. From the text:
FIG. 13 is a graph showing by using intracellular flow cytometry to analyze the pHER2 and HER2 expression level of HCC1569, that cells on softer gel have higher pHER2/HER2 ratio and less EdU incorporation, vice versa, and then compared to the drug response. Thus stiffness can alter HER2 regulation and drug response. pHER2/HER2 ratios are altered in a modulus-dependent manner. (blue line) pHER2/HER2 ratios as determined with phosphor specific flow cytometry on HCC1569 cells cultured 4 days on different compliance substrata. (red line) Responses to lapatinib determined by EdU incorporation in HCC1569 as a function of substrate compliance
To better understand why changing the elastic modulus of the culture substrata altered sensitivity to lapatinib on PA gels we used phospho-specific intracellular flow cytometry techniques to measure the ratio of phosphorylated HER2 (pHER2, which is considered activated) to total HER2. Cells were first fixed and stained with an antibody that recognized total HER2 on the cell surface, then the cells were permeabilized and stained for pHER2 prior to multicolor analysis on a flow cytometer.
To determine whether the actinomyosin network is involved in regulating the modulus-dependent regulation of HER2, HCC 1569 were exposed to Blebbistatin or Y27632 for 24 hours on PA gels of differing compliance. […] Thus the actinomyosin network is likely important in modulus-dependent regulation of HER2.
For orientation: Flow cytometry measures light scatter and fluorescence of single cells or particles in a stream.

In data set [2] the test system is HER2+ breast cancer cell line HCC1569. The experiment in a line: EdU incorporation (DNA synthesis) of HCC1569 on 2D tissue culture plastic, PA gels of tuned elastic modulus or 3D Matrigel. The settings on record: for Effect of inhibitor added with lapatinib on the 3D context-dependent response (EdU incorporation): 3D Matrigel versus 2D TC plastic; for Effect of inhibitor alone on EdU incorporation: TC plastic or 3D Matrigel, without lapatinib; for Effect of actinomyosin network inhibitor on the modulus-dependent lapatinib response: HCC1569 on PA gels, 1 hr w/inhibitors; for Response to lapatinib (EdU incorporation), 3D Matrigel culture versus 2D tissue culture plastic: 4 days growth then 2 days with 1.5 μM Lapatinib.
Protocol: (§1) The cells were grown on plastic tissue culture dishes (2D) vs. PA gels, and 3D on top, RPMI1640 with 1% FBS and 5% Matrigel 4 days growth then 2 days with 1.5 μM Lapatinib.
(§2) We sought to determine if HER-2 drug response was different between 2D and 3D culture environment and whether that difference is due to different substrata stiffness. Cells were grown on plastic tissue culture dishes (2D), functionalized polyacrylamide cell culture (PA) gels, and in 3D (Matrigel on top, RPMI1640 with 1% FBS and 5% Matrigel 4 days growth then 2 days with 1.5 μM Lapatinib).
We next sought to determine if the actinomyosin network plays a role in this different drug response. Cells were grown in 2D, on PA gels, and in 3D Matrigel with 2 days growth, 1 hr w/inhibitors, then 2 days with 1.5 μM lapatinib.
To determine whether the 3D Matrigel context response was due only to the physiological modulus, we combined the actinomyosin network inhibitors together with lapatinib and compared the responses of cells in 3D to cells cultured on 2D TC plastic.
We next sought to determine if the concentration of type I collagen affected HER-2 targeted drug response. Referring now to FIG. 14, cells were subjected to non-coated tissue culture dishes, Collagen I coated tissue coated dishes for 2 days growth, then 2 days with 1.5 μM lapatinib.

In data set [3] the test system is HER2- BT549 cells. The experiment in a line: EdU incorporation of BT549 on 2D plastic, PA gels or 3D Matrigel. It is filed as cell-based. The following applies: PA gel and 3D, 1.5 μM Lapatinib.
Protocol: as §1, §2
The subject of data set [4] is HER2-expressing breast cancer cell lines. The following applies: cited from earlier work.
Data set [5] relates to HCC1569 cells. The experiment in a line: eMEArray drug response, EdU-pixels/nucleus-pixels of HCC1569 on printed microenvironments on PA gels.
The mark [6] stands for this setting: then 2 days with 1.5 μM lapatinib.

In the case of `C[C@@H](N)[C@H]1CC[C@H](C(=O)Nc2ccncc2)CC1` [Y27632], in data set [1], the “Modulus-dependent regulation of pHER2/HER2 ratio in treated cells” value is “absent”. Moreover, in data set [2] (HCC1569), the “Effect of inhibitor added with lapatinib on the 3D context-dependent response (EdU incorporation)” value is on record as “did not alter” and the “Effect of inhibitor alone on EdU incorporation” value is “did not have any effect”. Moreover, the “Effect of actinomyosin network inhibitor on the modulus-dependent lapatinib response” value (“Effect of actinomyosin network inhibitor” for short) in data set [2] (setting [6]) is “altered”.
As to `Cc1ccc2c(c1)C(=O)C1(O)CCN(c3ccccc3)C1=N2` (stereo not shown) [Blebbistatin], in data set [1], the “Modulus-dependent regulation of pHER2/HER2 ratio in treated cells” value is reported as “absent”. Besides, in data set [2] (setting [6]), the “Effect of actinomyosin network inhibitor” value is on record as “altered”.
Consider `CS(=O)(=O)CCNCc1ccc(-c2ccc3ncnc(Nc4ccc(OCc5cccc(F)c5)c(Cl)c4)c3c2)o1` [Lapatinib], for which the entries for the “Response to lapatinib (EdU incorporation)” value in data set [3] and in data set [3] (listed as lapatinib) were “unaffected” and “did not respond; also recorded: insensitive”, respectively. Also, the “Ratio of pHER2 to total HER2 as a function of substrate compliance” value in data set [1] (HCC1569 on 400 Pa, 2500 Pa, 4470 Pa, 40 KPa gels or TC plastic, 1.5 uM lapatinib for 4 days) is reported as “higher ratio of pHER2 to total HER2 on more compliant substrata”. In data set [4], the “Responsiveness in 3D Matrigel culture compared to 2D growth” value is “less responsive”. Besides, the “Response of cells on eMEArrays with elastic modulus similar to 40 kPa” value in data set [5] (40 kPa) is recorded as “sensitive response”. Besides, the “Response of cells on 400 kPa eMEArrays” value in data set [5] (400 kPa) is recorded as “resistant response”. In addition, the “Responses to lapatinib on other molecular microenvironments relative to type 1 collagen alone” value in data set [5] (HCC1569, 1.5 μM Lapatinib for 24 hours, EdU for the final 4 hours) is “widely varied responses”. Further, the “Response to lapatinib (EdU incorporation) on PA gels tuned to 400 Pa, compared with 3D Matrigel” value in data set [2] (HCC1569, 400 Pa PA gel crosslinked to type 1 collagen, 1.5 uM lapatinib) was “very similar results compared to 3D cultures; also recorded: phenocopied the response of HCC1569 grown in 3D Matrigel”. Besides, the “Response to lapatinib (EdU incorporation), 3D Matrigel culture versus 2D tissue culture plastic” value was “inhibited more” in data set [2] (HCC1569) and “more sensitive” in data set [2] (HCC1569, listed as lapatinib). In addition, the “Influence of type I collagen concentration on lapatinib response (% EdU incorporation)” value in data set [2] (non-coated vs Collagen-I coated TC dishes or PA gels, 2 days growth, then 2 days with 1.5 μM lapatinib) was “does impact lapatinib response on TC dishes, but less so on low modulus gels”.
`O=S(=O)(c1cccc2c(I)cccc12)N1CCCNCC1` [ML-7]: in data set [2] (HCC1569), the “Effect of inhibitor added with lapatinib on the 3D context-dependent response (EdU incorporation)” value is “eliminated any context-driven differences” and the “Effect of inhibitor alone on EdU incorporation” value is “did not have any effect”. In data set [2] (setting [6]), the “Effect of actinomyosin network inhibitor” value is on record as “altered”. The “Effect of combination with Lapatinib on cells on 2D PA gels” value in data set [2] (combination of ML-7 with Lapatinib, 2D PA gels) is “synergistic response that caused massive cell death”. For the same molecule, the “Effect of lapatinib and ML-7 together on cells in 3D” value in data set [2] (lapatinib and ML-7, 3D Matrigel) was “no such synergistic effect”.
